This is an account of results in ChEMBL document CHEMBL1141665, “Quantitative structure-activity relationship studies of a series of non-benzodiazepine structural ligands binding to benzodiazepine receptor” (Eur J Med Chem, 2008).

A short description of this test: Displacement of [3H]diazepam from GABAA/BzR in rat brain membrane. It counts as cell membranes. Background: In a radioligand displacement assay an active substance lowers the binding of a labelled ligand.
What is called pIC50 is the negative decadic logarithm of the IC50, by convention in mol/L. A high value points to a small IC50. As to `Brc1ccc2[nH]c3c4c5ccccc5nc-4c[nH]c3c2c1`, the pIC50 turned out to be 6.12.

With `Brc1cccc2c1[nH]c1c3c4ccccc4nc-3c[nH]c12`, the pIC50 amounted to 7.55.

For the molecule `Cn1c2ccccc2c2c3[nH]c4ccccc4c3ncc21`, the pIC50 is reported as 5.94.

The molecule `Oc1cc2c3ccccc3nc-2c[nH]1` had a pIC50 of 5.4.

The molecule `c1ccc2c(c1)[nH]c1c2ncc2[nH]c3ccccc3c21` showed a pIC50 of 8.4.

`Clc1cccc2[nH]c3c4c5ccccc5nc-4c[nH]c3c12`: the pIC50 is 6.15.

In turn, `Cc1ccc2[nH]c3c4c5ccccc5nc-4c[nH]c3c2c1` returned a pIC50 of 6.65.

For the molecule `Fc1ccc2[nH]c3c4c5ccccc5nc-4c[nH]c3c2c1`, the pIC50 is on record as 8.22.

Turning to `Fc1cccc2c1[nH]c1c3c4ccccc4nc-3c[nH]c12`, the pIC50 is on record as 7.92.

For the molecule `Clc1ccc2[nH]c3c4c5ccccc5nc-4c[nH]c3c2c1`, the pIC50 was 5.67.

Molecule `Oc1cccc2[nH]c3c4c5ccccc5nc-4c[nH]c3c12` returned a pIC50 of 6.24.

As to `Cc1cc(-n2[nH]c3c(cnc4cc(Cl)ccc43)c2=O)cs1`, the pIC50 is given as 8.96.

For `Cc1ccc2c(c1)ncc1c(=O)n(-c3csc(C)c3)[nH]c12`, the pIC50 turned out to be 8.87. The pIC50 values of the last two molecules are within 0.2 log units of each other.

`O=c1c2cnc3ccccc3c2[nH]n1-c1csc(Cl)c1`: the pIC50 worked out at 8.99.

Molecule `O=c1c2cnc3ccccc3c2[nH]n1-c1ccsc1` displayed a pIC50 of 8.99.

The molecule `Cc1cc(-n2[nH]c3c(cnc4cc(F)ccc43)c2=O)cs1` showed a pIC50 of 9.05.

For `Cc1cc(-n2[nH]c3c(cnc4ccccc43)c2=O)cs1`, the pIC50 turned out to be 9.35.

Consider `COc1ccc2[nH]c3c4c5ccccc5nc-4c[nH]c3c2c1`, for which the pIC50 was determined as 6.05.

In the case of `Brc1ccc2c(c1)[nH]c1c3c4ccccc4nc-3c[nH]c12`, the pIC50 is given as 7.72.

In the case of `Cc1cc(-n2nc3c4cc(Cl)ccc4[nH]cc-3c2=O)cs1`, the pIC50 was 9.06.

Regarding `Cc1ccc2[nH]cc3c(=O)n(-c4csc(C)c4)nc-3c2c1`, the pIC50 is 9.27.

Regarding `Cc1cc(-n2nc3c4cc(F)ccc4[nH]cc-3c2=O)cs1`, the pIC50 amounted to 9.29.

Take `Cc1cc(-n2nc3c4ccccc4n(C)cc-3c2=O)cs1`: the pIC50 is listed as 6.52.

`COc1cc2c(cn1)[nH]c1ccccc12`: the pIC50 was found to be 6.91.

`Clc1cc2c(cn1)[nH]c1ccccc12`: the pIC50 stood at 7.35.

In turn, `Clc1ccc2c(c1)[nH]c1c2ncc2[nH]c3ccccc3c21` yielded a pIC50 of 8.

In the case of `COc1ccc2c(c1)[nH]c1c2ncc2[nH]c3ccccc3c21`, the pIC50 amounted to 8.1.

`Brc1ccc2[nH]c3cnc4c5ccccc5[nH]c4c3c2c1` displayed a pIC50 of 8.22.

The molecule `c1ccc(Oc2ccc3[nH]c4c(ncc5[nH]c6ccccc6c54)c3c2)cc1` returned a pIC50 of 5.8.

Consider `Cn1c2ccccc2c2c1ccc1c3ccccc3n(C)c12`, for which the negative logarithm of the IC50 (pIC50) is reported as 5.72.

In turn, `O=[N+]([O-])c1cc2c3ccccc3nc-2c[nH]1` displayed a pIC50 of 6.9.

As to `CCOC(=O)c1cc2c(cn1)sc1ccccc12`, the pIC50 worked out at 5.77.

Take `Cc1ccc2c(c1)[nH]c1c3c4ccccc4nc-3c[nH]c12`: the pIC50 is 8.1.

In the case of `Cc1cccc2c1[nH]c1c3c4ccccc4nc-3c[nH]c12`, the pIC50 was determined as 7.08.

In turn, `CCOC(=O)c1cc2c(cn1)Cc1ccccc1-2` displayed a pIC50 of 6.17.

`COc1cccc2[nH]c3c4c5ccccc5nc-4c[nH]c3c12` showed a pIC50 of 6.6.

Turning to `Cn1c2ccccc2c2[nH]cc3nc4ccccc4c-3c21`, the pIC50 amounted to 6.8.

Consider `CCOC(=O)c1cc2c(cn1)oc1ccccc12`, for which the pIC50 was 5.04.

Regarding `CCc1nc2c3ccccc3[nH]c2c2c1[nH]c1ccccc12`, the pIC50 was determined as 6.6.

In the case of `Clc1ccc2[nH]c3c[nH]c4c5cccc(Cl)c5nc-4c3c2c1`, the pIC50 was 6.51.

As for `Oc1ccc2c(c1)[nH]c1c3c4ccccc4nc-3c[nH]c12`, the pIC50 is reported as 8.22.

In turn, `Nc1ccc2[nH]c3c[nH]c4c5ccccc5nc-4c3c2c1` yielded a pIC50 of 7.36.

Consider `O=[N+]([O-])c1ccc2[nH]c3c[nH]c4c5cc(Cl)ccc5nc-4c3c2c1`, for which the pIC50 is recorded as 5.92.

In turn, `Clc1cccc2c1[nH]c1c3c4ccccc4nc-3c[nH]c12` came in with a pIC50 of 7.1.

`O=[N+]([O-])c1ccc2[nH]c3c[nH]c4c5ccccc5nc-4c3c2c1` returned a pIC50 of 8.4.

As to `O=[N+]([O-])c1ccc2[nH]c3c[nH]c4c5ccc(Cl)cc5nc-4c3c2c1`, the pIC50 turned out to be 6.9.

In turn, `Fc1ccc2c(c1)[nH]c1c3c4ccccc4nc-3c[nH]c12` returned a pIC50 of 8.15.

The molecule `Oc1ccc2[nH]c3c4c5ccccc5nc-4c[nH]c3c2c1` gave a pIC50 of 6.94.

Molecule `Nc1ccc2[nH]c3c[nH]c4c5ccc(Cl)cc5nc-4c3c2c1` showed a pIC50 of 7.01.

Take `COC(=O)c1cc2c(cn1)[nH]c1ccccc12` [BETA-CCM]: the pIC50 came to 8.3.

On to `O=C1C2C=Nc3ccccc3C2=NN1c1ccccc1` (centres undefined) [CGS-8216], for which the pIC50 was found to be 9.51.

`O=C1C2C=Nc3ccccc3C2=NN1c1ccc(Cl)cc1` (centres undefined) [CGS-9896]: the pIC50 turned out to be 8.94.

`Cc1nccc2c1[nH]c1ccccc12` [HARMAN] gave a pIC50 of 4.91.

For `c1ccc2c(c1)[nH]c1cnccc12` [NORHARMANE], the pIC50 came out at 5.79.
